Assay results published in US9937260B2, “Curcumin conjugates for treating and preventing cancers” (BOARD OF SUPERVISORS OF LOUISIANA STATE UNIVERSITY AND …, priority 2008, dated 2018).
Non-standard residues stand in square brackets, D forms with d. Residues, ends and D or L forms follow the SMILES beside them. pGlu = O=C1CC[C@@H](C(=O)O)N1

Assays:
[1] = system: MIAPaCa-2, BxPC-3 and PANC-1 pancreatic cancer cells; assay: Modified MTT cytotoxicity assay; format: cell-based, human
Experimental: Pancreatic cell lines MIAPaCa-2, BxPC-3, and PANC-1 were obtained from the American Type Culture Collection. All cell lines were cultured in DMEM supplemented with 10% FBS, 100 units/mL penicillin, and 100 μg/mL streptomycin. The presence and location of LHRH-receptors in these pancreatic cancer cell lines was determined by immunochemical methods.
The cytotoxicity of the peptides was determined with a modified MTT (3-(4, 5-dimethylthiazol-2-yl)-2, 5-diphenyltetrazolium bromide) assay. Briefly, MIAPaCa-2, BxPC-3 and PANG-1 cells (2000/well) were separately incubated in 96-well plates in triplicate in a cell growth medium with different concentrations of LHRH, LHRH-Curcumin, Curcumin, and LHRH-Phor21. Three wells served as controls, each receiving an equivalent volume of medium. After 24 hours, an MTT solution (5 mg/ml in PBS) was added to each well and incubated for 2 hours at 37° C., followed by extraction with buffer (20% SDS and 50% dimethylformamide). The cells were incubated overnight at 37° C. Optical absorbance of the cell suspension was then measured at 590 nm using an MRX Revelation 96-well multiscanner (Dynex Technologies, Chantilly, Va.). From these measurements the IC50 doses of the peptides were calculated. […] Values given are mean±SD of triplicate cultures.

[2] = system: advanced pancreatic cancer; details: cited from earlier work
[3] = system: luciferase-transfected MIAPaCa-2 xenograft tumors; assay: Human pancreatic cancer xenograft in female athymic nude mice; format: in vivo
Text: MIAPaCa-2, a cell line expressing the LHRH receptor, was then used for in vivo experiments. We stably transfected MIAPaCa-2 cells with a gene encoding luciferase. We used the transfected cells to produce a pancreatic cancer xenograft mouse model.
Forty-eight female nude mice (athymic Balb/c, 4-5 weeks old) were obtained from a commercial vendor (Charles River Laboratories, Wilmington, Mass.), and caged individually in a room maintained at constant temperature and humidity under a 12-h light and darkness cycle, and fed a regular, autoclaved chow diet with water ad libitum. […]
After the tumors were established (100-250 mm^3), the 48 mice were randomized into six different treatment groups (n=8 mice per group): (1) LHRH alone, (2) LHRH-Curcumin, (3) LHRH-Phor21, (4) unconjugated LHRH and Phor21, (5) vehicle control, and (6) a control group of tumor-bearing mice that were necropsied before treatment (baseline controls). […] Tumor volumes and mice body weights were measured twice weekly, and mice were necropsied one week after the last treatment. At necropsy, tumors, ovaries, kidneys, pancreases, lungs, spleen, several bones, and liver were removed and weighed, and metastastic cell numbers were measured by luciferase assay. The tumor volumes and weights were analyzed by one-way ANOVA, and compared among groups using an unpaired Student's t-test. […]

[4] = system: caspase-3/7; assay: Apo-ONE homogenous caspase-3/7 assay in MIAPaCa-2 cells; format: cell-based, human; details: 5 μM, 24 hours, p<0.05, FIG. 6
Experimental: We also directly measured the effect of LHRH-curcumin on caspase 3 enzyme activity with the Apo-ONE homogenous caspase-3/7 assay kit (Promega, Madison, Wis.). This assay uses a profluorescent substrate with an optimized, bifunctional cell lysis/activity buffer. MIAPaCa-2 cells were treated in triplicate (10,000 cells per well) with the free peptide LHRH, or with the LHRH-Curcumin conjugate, in each case at a 5 μM concentration, and incubated for 24 hours. Following the 24 hour incubation, the Apo-ONE homogenous caspase-3/7 assay was performed according to the manufacturer's protocol. The buffer and 100 μL Apo-ONE caspase-3/7 assay reagent were mixed and added to the samples. Cells were then incubated for an additional hour prior to fluorescence measurements. Upon sequential cleavage and removal of the Asp-Glu-Val-Asp peptide (SEQ ID NO. 10) by caspase-3/7 activity, the rhodamine 110 leaving group became intensely fluorescent with excitation at 499 nm and an emission maximum at 512 nm. The excitation/emission was recorded on a FlexStation (Molecular Devices, Sunnyvale, Calif.) with softMax Pro version 4.8 software. The experiment was conducted in duplicate. Statistical significance was determined by a two-tailed Students t-test, using GraphPad Prism software version 5.0.

COc1cc(/C=C/C(=O)CC(=O)/C=C/c2ccc(O)c(OC)c2)ccc1O [Curcumin, diferuloylmethane]
inhibition of proliferation of pancreatic cancer cells ([1]; 24 hours, MTT, FIGS. 2(A)-2(C)): inhibited the proliferation of pancreatic cancer cells
bioavailability ([2]; oral administration): poor bioavailability
patients with clinical biological activity ([2]; oral, advanced pancreatic cancer): 2 of 21

CC(C)C[C@H](NC(=O)CNC(=O)[C@H](Cc1ccc(O)cc1)NC(=O)[C@H](CO)NC(=O)[C@H](Cc1c[nH]c2ccccc12)NC(=O)[C@H](Cc1c[nH]cn1)NC(=O)[C@@H]1CCC(=O)N1)C(=O)N[C@@H](CCCNC(=N)N)C(=O)N1CCC[C@H]1C(=O)NCC(=O)N[C@@H](CCCCN)C(=O)N[C@@H](Cc1ccccc1)C(=O)N[C@@H](C)C(=O)N[C@@H](CCCCN)C(=O)N[C@@H](Cc1ccccc1)C(=O)N[C@@H](C)C(=O)N[C@@H](CCCCN)C(=O)N[C@@H](CCCCN)C(=O)N[C@@H](Cc1ccccc1)C(=O)N[C@@H](C)C(=O)N[C@@H](CCCCN)C(=O)N[C@@H](Cc1ccccc1)C(=O)N[C@@H](C)C(=O)N[C@@H](CCCCN)C(=O)N[C@@H](CCCCN)C(=O)N[C@@H](Cc1ccccc1)C(=O)N[C@@H](C)C(=O)N[C@@H](CCCCN)C(=O)N[C@@H](Cc1ccccc1)C(=O)N[C@@H](C)C(=O)N[C@@H](CCCCN)C(=O)O [LHRH-Phor21] ([pGlu]HWSYGLRPGKFAKFAKKFAKFAKKFAKFAK-OH; C-terminus assumed)
relative cytotoxicity [1]: greater cytotoxicity than that of LHRH-Curcumin
mice body weights as indicators of potential toxicity ([3]; FIG. 5(D)): not significantly different from control
side effects ([3]; tail vein injections): some inflammation was seen in the mice tails at the site of injections

pGlu-His-Trp-Ser-Tyr-Gly-Leu-Arg-Pro-Gly [LHRH]
caspase-3/7 activity [4]: significantly increased
